This is an account of results in PMC11855827, “High-Throughput Screening of Five Compound Libraries for Anthelmintic Activity and Toxicity Leads to the Discovery of Two Flavonoid Compounds” (International Journal of Molecular Sciences, 2025).

This experiment has as its system C. elegans.
Setting [1] is: Table S2, C. elegans SS assay, 110 μM, 0 h, averages of 4 data points.
Where [2] appears, read: Table S2, C. elegans SS assay, 110 μM, 24 h, averages of 4 data points.

“And” between values parts separate entries of the source, which are not always exact repeats. Identical values can stand only once. Like-named read-outs stand apart in the source and are kept apart here.

As to `CC1(C)CC[C@]2(C(=O)O[C@@H]3O[C@H](CO)[C@@H](O)[C@H](O)[C@H]3O)CC[C@]3(C)C(=CC[C@@H]4[C@@]5(C)CC[C@H](O[C@@H]6O[C@H](C(=O)O)[C@@H](O)[C@H](O[C@@H]7OC[C@@H](O)[C@H](O)[C@H]7O)[C@H]6O)C(C)(C)[C@@H]5CC[C@]43C)[C@@H]2C1` [Momordin IIc], the “Percentage of motility inhibition 0 h” value under setting [1] was determined as 0%. Moreover, the “Percentage of motility inhibition 24 h” value under setting [2] was determined as 0%.

For the compound (+)-Catechin hydrate, under setting [1], the “Percentage of motility inhibition 0 h” value was 12% and 8%.

Regarding `CC1(C)CCC[C@]2(C)[C@H]3CC(=O)O[C@]3(C)CC[C@@H]12` [Sclareolide], the “Percentage of motility inhibition 0 h” value under setting [1] stood at 1%. Further, the “Percentage of motility inhibition 24 h” value under setting [2] was 25%.

For the compound `OC1C[C@H]2CC[C@@H](C1)N2` (some centres unmarked) [Nortropine], under setting [1], the “Percentage of motility inhibition 0 h” value is listed as 12%. In addition, the “Percentage of motility inhibition 24 h” value under setting [2] turned out to be 11%.

For `C[C@@H]1O[C@@H](OC[C@H]2O[C@@H](Oc3c(-c4ccc(O)cc4)oc4cc(O)cc(O)c4c3=O)[C@H](O)[C@@H](O)[C@@H]2O)[C@H](O)[C@H](O)[C@H]1O` [Nicotiflorin], the “Percentage of motility inhibition 0 h” value under setting [1] came to 4%. Further, the “Percentage of motility inhibition 24 h” value under setting [2] was found to be 40%.

Regarding `CC(C)=CCc1c(O)ccc(-c2coc3cc(O)cc(O)c3c2=O)c1O` [Licoisoflavone A], the “Percentage of motility inhibition 0 h” value under setting [1] was 0%. In addition, the “Percentage of motility inhibition 24 h” value under setting [2] came out at 10%.

Consider `CC[C@H]1OC(=O)[C@H](C)[C@@H](O[C@H]2C[C@@](C)(OC)[C@@H](O)[C@H](C)O2)[C@H](C)[C@@H](O[C@@H]2O[C@H](C)C[C@H](N(C)C)[C@H]2O)[C@](C)(O)C[C@@H](C)CN[C@H](C)[C@@H](O)[C@]1(C)O` [Azathramycin], for which the “Percentage of motility inhibition 0 h” value under setting [1] is given as 11%. Further, the “Percentage of motility inhibition 24 h” value under setting [2] worked out at 10%.

Regarding `CC(=O)O[C@H](CC(=O)O)C[N+](C)(C)C.[Cl-]` [Acetyl‐L‐carni tine (hydrochloride)], the “Percentage of motility inhibition 0 h” value under setting [1] is reported as 12%. Under setting [2], the “Percentage of motility inhibition 24 h” value is on record as 0%.

Consider `NCC(=O)O` [Glycine], for which, under “110 µM”, the “Percentage of motility inhibition 0 h” value came out at 32% and the “Percentage of motility inhibition 24 h” value is 13%.

Consider `C[C@H](CC(=O)[C@@H]1OC1(C)C)[C@H]1C(=O)C[C@@]2(C)C3=CC[C@H]4C(C)(C)[C@@H](O[C@@H]5OC[C@@H](O)[C@H](O)[C@H]5O)CC[C@@]45C[C@@]35[C@@H](O)C[C@]12C` [Cimicifugoside H-1], for which the “Percentage of motility inhibition 0 h” value under setting [1] was 0%. The “Percentage of motility inhibition 24 h” value under setting [2] is reported as 3%.

Take `CN1Cc2c(ccc3c2OCO3)[C@@]2(C)[C@@H](O)Cc3cc4c(cc3[C@@H]12)OCO4` [Corynoline]: the “Percentage of motility inhibition 0 h” value under setting [1] came out at 13%. Besides, the “Percentage of motility inhibition 24 h” value under setting [2] was 0%.

For the compound `CC(=O)OC[C@]12C[C@H](OC(=O)CC(C)C)C(C)=C[C@H]1O[C@@H]1[C@H](O)[C@@H](OC(C)=O)[C@@]2(C)[C@]12CO2` [T-2 Toxin], under “110 µM”, the “Percentage of motility inhibition 0 h” value came out at 11% and the “Percentage of motility inhibition 24 h” value was determined as 2%.

As to `CC(C)(O)[C@H]1CC[C@@](C)([C@H]2CC[C@]3(C)[C@@H]2[C@H](O)C[C@@H]2[C@@]4(C)CC[C@H](O)C(C)(C)[C@@H]4[C@@H](O[C@@H]4O[C@H](CO)[C@@H](O)[C@H](O)[C@H]4O)C[C@]23C)O1` [Pseudoginsenoside RT5], the “Percentage of motility inhibition 0 h” value under setting [1] stood at 0%. Also, the “Percentage of motility inhibition 24 h” value under setting [2] amounted to 16%.

Consider `Cn1c(=O)c2c(ncn2CC(O)CO)n(C)c1=O` (centres unmarked) [Diphylline], for which the “Percentage of motility inhibition 0 h” value under setting [1] stood at 66%. Further, the “Percentage of motility inhibition 24 h” value under setting [2] is reported as 31%.

In the case of `Cl.N=C(N)NCCC[C@H](N)C(=O)O` [L-Arginine (hydrochloride)], the “Percentage of motility inhibition 0 h” value under setting [1] is 20%. Besides, under setting [2], the “Percentage of motility inhibition 24 h” value turned out to be 17%.

In the case of `COc1cc(-c2coc3cc(O[C@@H]4O[C@H](CO)[C@@H](O)[C@H](O)[C@H]4O)c(OC)c(O)c3c2=O)ccc1O` [Iristectorin B], the “Percentage of motility inhibition 0 h” value under setting [1] is on record as 5%. The “Percentage of motility inhibition 24 h” value under setting [2] is recorded as 6%.

For Cycleanine, the “Percentage of motility inhibition 0 h” value under setting [1] is given as 4%. The “Percentage of motility inhibition 24 h” value under setting [2] stood at 4%.

As to `CSC(=O)OCC1=C[C@@H]2OC(=O)C3=CO[C@@H](O[C@@H]4O[C@H](CO)[C@@H](O)[C@H](O)[C@H]4O)[C@H]1[C@@H]32` [Paederoside], the “Percentage of motility inhibition 0 h” value under setting [1] amounted to 9%. Besides, the “Percentage of motility inhibition 24 h” value under setting [2] amounted to 4%.

On to `C=C(C(=O)OC1C[C@@H]2[C@H]3O[C@H]3[C@H](C1)N2C)c1ccccc1` (some centres unmarked) [Aposcopolamine], for which, under setting [1], the “Percentage of motility inhibition 0 h” value worked out at 14%. Also, the “Percentage of motility inhibition 24 h” value under setting [2] is on record as 10%.

For the compound `C[C@H](CO[C@@H]1O[C@H](CO)[C@@H](O)[C@H](O)[C@H]1O)[C@H]1CC[C@@]2(CC[C@]3(C)[C@H](CC[C@@H]4[C@@]5(C)CC[C@H](O[C@@H]6O[C@H](CO)[C@@H](O)[C@H](O)[C@H]6O[C@@H]6O[C@H](CO)[C@@H](O)[C@H](O)[C@H]6O)[C@@](C)(CO)[C@@H]5CC[C@]43C)[C@H]2O)CO1` [Hosenkoside B], the “Percentage of motility inhibition 0 h” value under setting [1] was 7%. For the same compound, the “Percentage of motility inhibition 24 h” value under setting [2] was 10%.

With `CC1CCC(C(C)C)C(O)C1` (single isomer, unassigned; (-)) [(-)-Menthol], under setting [1], the “Percentage of motility inhibition 0 h” value is 7% and 6%.

As to `C[C@H]1CC[C@@]2(O)C(C)(C)[C@@H]3CC[C@@]2(C)[C@H]1C3` [Patchouli alcohol], the “Percentage of motility inhibition 0 h” value under setting [1] turned out to be 24%. Also, the “Percentage of motility inhibition 24 h” value under setting [2] was found to be 35%.

Regarding `CN(C)[C@@H]1C(=O)C(C(N)=O)=C(O)[C@@]2(O)C(=O)C3=C(O)c4c(O)cccc4[C@@](C)(O)[C@H]3C[C@@H]12.Cl` [Tetracycline (hydrochloride)], the “Percentage of motility inhibition 0 h” value under setting [1] is listed as 26%. Besides, the “Percentage of motility inhibition 24 h” value under setting [2] worked out at 11%.

For the compound `O=C([O-])c1ccccc1O.[Na+]` [Sodium Salicylate], the “Percentage of motility inhibition 0 h” value under setting [1] was found to be 2%. The “Percentage of motility inhibition 24 h” value under setting [2] is given as 4%.

Turning to `CN1CC(=O)NC1=O` [N‐Methylhydantoin], the “Percentage of motility inhibition 0 h” value under setting [1] stood at 13%. Moreover, the “Percentage of motility inhibition 24 h” value under setting [2] is given as 16%.

For `c1ccc2c(-c3nccs3)c[nH]c2c1` [Camalexin], under setting [1], the “Percentage of motility inhibition 0 h” value was 50%. In addition, under setting [2], the “Percentage of motility inhibition 24 h” value was 27%.

Turning to `C=CC(=C)CC/C=C(\C)CCC=C(C)C` [(E)-β-Farnesene], the “Percentage of motility inhibition 0 h” value under setting [1] was determined as 0%. The “Percentage of motility inhibition 24 h” value under setting [2] is 11%.

With `C/C=C1\C[C@@H](C)[C@](O)(CO)C(=O)OCC2=CCN3CC[C@@H](OC1=O)[C@@H]23` [Usaramine], the “Percentage of motility inhibition 0 h” value under setting [1] stood at 31%. In addition, the “Percentage of motility inhibition 24 h” value under setting [2] stood at 21%.

Turning to `CC(C)=CCC[C@](C)(O[C@@H]1O[C@H](CO[C@@H]2OC[C@H](O[C@@H]3OC[C@@H](O)[C@H](O)[C@H]3O)[C@H](O)[C@H]2O)[C@@H](O)[C@H](O)[C@H]1O)[C@H]1CC[C@]2(C)[C@@H]1[C@H](O)C[C@@H]1[C@@]3(C)CC[C@H](O[C@@H]4O[C@H](CO)[C@@H](O)[C@H](O)[C@H]4O[C@@H]4O[C@H](CO)[C@@H](O)[C@H](O)[C@H]4O)C(C)(C)[C@@H]3CC[C@]12C` [Ginsenoside Ra1], the “Percentage of motility inhibition 0 h” value under setting [1] amounted to 0%. Further, the “Percentage of motility inhibition 24 h” value under setting [2] is 0%.

In the case of `CC(C)(O)[C@@H]1CC[C@](C)([C@H]2[C@@H](O)C[C@@]3(C)[C@@H]4C[C@H](O[C@@H]5O[C@H](CO)[C@@H](O)[C@H](O)[C@H]5O)[C@H]5C(C)(C)[C@@H](O[C@@H]6OC[C@@H](O)[C@H](O)[C@H]6O)CC[C@@]56C[C@@]46CC[C@]23C)O1` [Astragaloside IV], under setting [1], the “Percentage of motility inhibition 0 h” value is recorded as 10%. Besides, the “Percentage of motility inhibition 24 h” value under setting [2] is recorded as 0%.

`CC(=O)O[C@H]1CC[C@]2(C)C3=C(CC[C@H]2C1(C)C)[C@]1(C)C[C@@H](O)[C@H]([C@@H](CCC=C(C)C)C(=O)O)[C@@]1(C)CC3` [3-O-Acetyl-16α-hydroxytrametenolic acid]: the “Percentage of motility inhibition 0 h” value under setting [1] is listed as 7%. Besides, the “Percentage of motility inhibition 24 h” value under setting [2] is listed as 10%.

With `C[C@@H]1O[C@@H](O[C@@H]2[C@@H](O)[C@H](O)[C@@H](CO)O[C@H]2c2c(O)cc(O)c3c(=O)cc(-c4ccc(O)cc4)oc23)[C@H](O)[C@H](O)[C@H]1O` [Vitexin‐2"‐O‐rhamnoside], under setting [1], the “Percentage of motility inhibition 0 h” value stood at 2%. In addition, the “Percentage of motility inhibition 24 h” value under setting [2] was 52%.

On to `C[N+]1(C)CCC[C@H]1C(=O)[O-].Cl` [Stachydrine hydrochloride], for which the “Percentage of motility inhibition 0 h” value under setting [1] is reported as 15%. Besides, the “Percentage of motility inhibition 24 h” value under setting [2] is 26%.

Turning to `CC(C)Nc1cccnc1N1CCN(C(=O)c2cc3cc(NS(C)(=O)=O)ccc3[nH]2)CC1.CS(=O)(=O)O` [Delavirdine (mesylate)], under setting [1], the “Percentage of motility inhibition 0 h” value was determined as 22%. Further, the “Percentage of motility inhibition 24 h” value under setting [2] was 16%.

On to `COC(=O)C1=CO[C@@H](O[C@@H]2O[C@H](CO)[C@@H](O)[C@H](O)[C@H]2O)[C@H]2[C@@H]1C(=O)C[C@@H]2C` [Verbenalin], for which the “Percentage of motility inhibition 0 h” value under setting [1] turned out to be 60%. In addition, the “Percentage of motility inhibition 24 h” value under setting [2] is 44%.

With `CC(=O)O[C@H]1[C@H](O[C@H]2CC[C@]34C[C@]35CC[C@]3(C)[C@@H]([C@@]6(C)CC[C@@H](C(C)(C)O)O6)[C@@H](O)C[C@@]3(C)[C@@H]5C[C@H](O[C@@H]3O[C@H](CO)[C@@H](O)[C@H](O)[C@H]3O)[C@H]4C2(C)C)OC[C@@H](OC(C)=O)[C@@H]1O` [Isoastragaloside I], the “Percentage of motility inhibition 0 h” value under setting [1] came out at 12%. Besides, the “Percentage of motility inhibition 24 h” value under setting [2] came to 59%.

Consider `CCN(CC)C(=O)c1cccc(C)c1` [DEET], for which the “Percentage of motility inhibition 0 h” value under setting [1] is listed as 59%. Further, the “Percentage of motility inhibition 24 h” value under setting [2] stood at 25%.

`C=C1CC[C@@H]2[C@](C)(CO)[C@H](O)CC[C@]2(C)[C@@H]1/C=C/C1=CCOC1=O` [14-Deoxy-11,12-didehydroandrographolide]: under setting [1], the “Percentage of motility inhibition 0 h” value was found to be 0%. The “Percentage of motility inhibition 24 h” value under setting [2] turned out to be 6%.
